Test results: patent US7897543B2, “Spiroketal-substituted cyclic ketoenols” (Bayer CropScience AG, priority 2005, dated 2011)

How the values were obtained:
Echinocloa crus-galli = test: Example V 2: Herbicidal Post-Emergence Action; type: in vivo; settings: greenhouse, 320 g of a.i./ha, about 3 weeks
Protocol: (§1) Seeds of monocotyledonous and dicotyledonous weed and crop plants are placed into sandy loam in wood fibre pots, covered with soil and cultivated in a greenhouse under good growth conditions. 2-3 weeks after sowing, the test plants are treated at the one-leaf stage. The test compounds, formulated as wettable powders (WP), are then, in various dosages with a water application rate of 600 l/ha (converted), with 0.2% of wetting agent added, sprayed onto the green parts of the plants. After the test plants have been kept in the greenhouse under optimum growth conditions for about 3 weeks, the effect of the preparations is rated visually in comparison to untreated controls (herbicidal effect in percent (%): 100% effect=the plants have died, 0% effect=like control plants).

Setaria viridis = test: Example V 2: Herbicidal Post-Emergence Action; type: in vivo; settings: greenhouse, 320 g of a.i./ha, about 3 weeks
Protocol: as §1

Lolium multiflorum = test: Example V 2: Herbicidal Post-Emergence Action; type: in vivo; settings: greenhouse, 320 g of a.i./ha, about 3 weeks
Protocol: as §1

[1] = tested on: monocotyledonous and dicotyledonous weed and crop plants; test: Example V 2: Herbicidal Post-Emergence Action; type: in vivo; settings: greenhouse, 320 g of a.i./ha, about 3 weeks
Protocol: as §1

Phaedon cochleariae [2] = test: Example M: Phaedon cochleariae Larvae Test; type: in vivo; settings: concentration of 100 ppm
Protocol: [table] To produce a suitable preparation of active compound, 1 part by weight of active compound is mixed with the stated amounts of solvent and emulsifier, and the concentrate is diluted with emulsifier-containing water to the desired concentration. Cabbage leaves (Brassica oleracea) are treated by being dipped into the preparation of active compound of the desired concentration and are populated with larvae of the mustard beetle (Phaedon cochleariae) while the leaves are still moist.

Meloidogyne incognita [3] = test: Example K: Meloidogyne Test; type: in vivo; settings: concentration of 20 ppm
Protocol: (§2) To produce a suitable preparation of active compound, 1 part by weight of active compound is mixed with the stated amounts of solvent and emulsifier, and the concentrate is diluted with water to the desired concentration.
(§3) Vessels are filled with sand, solution of active compound, Meloidogyne incognita egg/larvae suspension and lettuce seeds. The lettuce seeds germinate and the plants develop. On the roots, galls are formed.
(§4) After the desired period of time, the nematicidal activity is determined in % by the formation of galls. 100% means that no galls have been found; 0% means that the number of galls on the treated plants corresponds to that of the untreated control.

cereal crop plants = test: Profiling tests, herbicidal post-emergence action with safeners: container trials with cereal in a greenhouse, Mefenpyr 1 day prior to herbicide application; settings: in vivo
Protocol: Test Description for Profiling Tests
2. Herbicidal Post-Emergence Action
Seeds of monocotyledonous and dicotyledonous weed and crop plants are placed into sandy loam in wood fibre pots or in plastic pots, covered with soil and cultivated in a greenhouse, during the vegetation period also outdoors outside of the greenhouse, under good growth conditions. 2-3 weeks after sowing, the test plants are treated at the one- to three-leaf stage. The test compounds, formulated as wettable powders (WP) or emulsifiable concentrates (EC) are, in various dosages with a water application rate of 300 l/ha (converted), with wetting agent (0.2 to 0.3%) added, sprayed onto the plants and the surface of the soil. […] after the treatment of the test plants, the effect of the preparations is rated visually in comparison to untreated controls (herbicidal effect in percent (%): 100% effect=the plants have died, 0% effect=like control plants). […]

Phaedon cochleariae [4] = test: Example N: Phaedon Test (spray treatment); type: in vivo; settings: application rate 500 g/ha
Protocol: [table] To produce a suitable preparation of active compound, 1 part by weight of active compound is mixed with the stated amounts of solvents and emulsifier, and the concentrate is diluted with emulsifier-containing water to the desired concentration. Discs of Chinese cabbage (Brassica pekinensis) are sprayed with a preparation of active compound of the desired concentration and, after drying, populated with larvae of the mustard beetle (Phaedon cochleariae).

Meloidogyne incognita [5] = test: Example H: Meloidogyne Test (7:1); type: in vivo; settings: concentration of 20 ppm
Protocol: as §2, §3, §4

Test plants = test: Example U: Pre-emergence Test; type: in vivo; settings: greenhouse, 250 g of a.i./ha, after three weeks
Protocol: To produce a suitable preparation of active compound, 1 part by weight of active compound is mixed with the stated amount of solvent, the stated amount of emulsifier is added and the concentrate is diluted with water to the desired concentration.
Seeds of the test plants are sown in normal soil. After about 24 hours, the soil is sprayed with the preparation of active compound such that the particular amounts of active compound desired are applied per unit area. The concentration of the spray liquor is chosen such that the particular amounts of active compound desired are applied in 1000 l of water/ha.
After three weeks, the degree of damage to the plants is rated in % damage in comparison to the development of the untreated control.
The figures denote: • 0%=no effect (like untreated control) • 100%=total destruction

Plutella xylostella = test: Example D: Plutella Test (7:1); type: in vivo; settings: concentration of 1000 ppm
Protocol: (§5) To produce a suitable preparation of active compound, 1 part by weight of active compound is mixed with the stated amounts of solvent and emulsifier, and the concentrate is diluted with emulsifier-containing water to the desired concentration.
Cabbage leaves (Brassica oleracea) are treated by being dipped into the preparation of active compound of the desired concentration and are populated with caterpillars of the diamond back moth (Plutella xylostella) while the leaves are still moist.
After the desired period of time, the kill in % is determined. 100% means that all caterpillars have been killed; 0% means that none of the caterpillars have been killed.

Nephotettix cincticeps = test: Example F: Nephotettix Test (7:1); type: in vivo; settings: concentration of 1000 ppm
Protocol: as §5
Rice seedlings (Oryza sativa) are treated by being dipped into the preparation of active compound of the desired concentration and are populated with the green rice leaf hopper (Nephotettix cincticeps) while the leaves are still moist.
After the desired period of time, the kill in % is determined. 100% means that all leaf hoppers have been killed; 0% means that none of the leaf hoppers have been killed.

Meloidogyne incognita [6] = test: Example P: Meloidogyne Test (spray treatment); type: in vivo; settings: concentration of 20 ppm
Protocol: To produce a suitable preparation of active compound, 1 part by weight of active compound is mixed with the stated amount of solvent, and the concentrate is diluted with water to the desired concentration.
as §3, §4

Cc1cc(Br)cc(C)c1C1=C(O)C2(CCC3(CC2)OCCCO3)NC1=O [Ex. I-1-a-19]
herbicidal effect, Echinochloa (Echinocloa crus-galli): 90%
herbicidal effect, Setaria (Setaria viridis): 90%
herbicidal effect, Lolium (Lolium multiflorum): 90%
herbicidal effect, Sinapis [1]: 70%

Cc1cc(C)c(C2=C(O)C3(CCC4(CC3)OCC(C)(C)CO4)NC2=O)c(C)c1 [Ex. I-1-a-23]
activity (kill in %) (Phaedon cochleariae [2]): 100%

Cc1cc(Cl)cc(C)c1C1=C(O)C2(CCC3(CC2)OCCCO3)OC1=O [Ex. I-2-a-6]
herbicidal effect, Echinochloa (Echinocloa crus-galli): 60%
herbicidal effect, Setaria (Setaria viridis): 80%
herbicidal effect, Lolium (Lolium multiflorum): 80%
herbicidal effect, Sinapis [1]: 60%

Cc1ccc(C)c(C2=C(O)C3(CCC4(CC3)OCCCO4)NC2=O)c1 [Ex. I-1-a-12]
nematicidal activity in % (formation of galls) (Meloidogyne incognita [3]): 80%

CCOC(=O)OC1=C(c2c(CC)cc(Cl)cc2OC)C(=O)NC12CCC1(CC2)OCCO1 [Ex. I-1-c-25]
Summer barley observed (%) (cereal crop plants): 50%

Cc1cc(Br)cc(C)c1C1=C(O)C2(CCC3(CC2)OCCO3)OC1=O [Ex. I-2-a-5]
herbicidal effect, Setaria (Setaria viridis): 70%
herbicidal effect, Lolium (Lolium multiflorum): 100%
herbicidal effect, Amaranthus [1]: 70%
herbicidal effect, Stellaria [1]: 60%

Cc1cc(C)c(C2=C(O)C3(CCC4(CC3)OC(C)C(C)O4)NC2=O)c(C)c1 (mixture of isomers) [Ex. I-1-a-7]
activity in % (Phaedon cochleariae [4]): 100%
herbicidal effect, Echinochloa (Echinocloa crus-galli): 60%
herbicidal effect, Setaria (Setaria viridis): 80%
herbicidal effect, Lolium (Lolium multiflorum): 80%
herbicidal effect, Sinapis [1]: 60%

Cc1cc(Cl)cc(C)c1C1=C(O)C2(CCC3(CC2)OCCO3)NC1=O [Ex. I-1-a-4]
nematicidal activity in % (formation of galls) (Meloidogyne incognita [5]): 95%
damage, Amaranthus (Test plants; sub-table 1): 95%
damage, Echinochloa (Test plants; sub-table 1): 100%
damage, Galium (Test plants; sub-table 1): 70%
damage, Setaria (Test plants; sub-table 1): 100%
damage, Sinapis (Test plants; sub-table 1): 70%

Cc1cc(Cl)cc(C)c1C1=C(OC(=O)C(C)C)C2(CCC3(CC2)OCC(CCl)O3)OC1=O (stereo not drawn) [Ex. I-2-b-3]
herbicidal effect, Echinochloa (Echinocloa crus-galli): 80%
herbicidal effect, Setaria (Setaria viridis): 90%
herbicidal effect, Lolium (Lolium multiflorum): 100%

Cc1cc(C)c(C2=C(OC(=O)C(C)(C)C)C3(CCC4(CC3)OCCO4)OC2=O)c(C)c1 [Ex. I-2-b-2]
activity (kill in %) (Plutella xylostella): 100%
activity (kill in %) (Nephotettix cincticeps): 100%

CCOC(=O)OC1=C(c2c(C)cc(C)cc2C)C(=O)NC12CCC1(CC2)OCC(C)O1 (mixture of isomers) [Ex. I-1-c-6]
activity in % (Phaedon cochleariae [4]): 100%
herbicidal effect, Echinochloa (Echinocloa crus-galli): 80%
herbicidal effect, Setaria (Setaria viridis): 90%
herbicidal effect, Lolium (Lolium multiflorum): 90%
herbicidal effect, Sinapis [1]: 60%

Cc1cc(C)c(C2=C(O)C3(CCC4(CC3)OCCCO4)NC2=O)c(C)c1 [Ex. I-1-a-18]
activity in % (Phaedon cochleariae [4]): 100%
herbicidal effect, Echinochloa (Echinocloa crus-galli): 90%
herbicidal effect, Setaria (Setaria viridis): 100%
herbicidal effect, Lolium (Lolium multiflorum): 80%

Cc1cc(C)c(C2=C(O)C3(CCC4(CC3)OC(C)CC(C)O4)NC2=O)c(C)c1 (mixture of isomers) [Ex. I-1-a-21]
herbicidal effect, Echinochloa (Echinocloa crus-galli): 80%
herbicidal effect, Setaria (Setaria viridis): 90%
herbicidal effect, Lolium (Lolium multiflorum): 80%
herbicidal effect, Sinapis [1]: 70%

Cc1cc(C)c(C2=C(O)C3(CCC4(CC3)OCCO4)OC2=O)c(C)c1 [Ex. I-2-a-2]
activity (kill in %) (Plutella xylostella): 100%
activity (kill in %) (Nephotettix cincticeps): 100%
herbicidal effect, Echinochloa (Echinocloa crus-galli): 80%
herbicidal effect, Setaria (Setaria viridis): 100%
herbicidal effect, Lolium (Lolium multiflorum): 90%
herbicidal effect, Amaranthus [1]: 60%
herbicidal effect, Sinapis [1]: 70%

Cc1cc(C)c(C2=C(O)C3(CCC4(CC3)OCCO4)NC2=O)c(C)c1 [Ex. I-1-a-2]
activity (kill in %) (Plutella xylostella): 100%
activity (kill in %) (Nephotettix cincticeps): 100%
herbicidal effect, Echinochloa (Echinocloa crus-galli): 80%
herbicidal effect, Setaria (Setaria viridis): 90%
herbicidal effect, Lolium (Lolium multiflorum): 70%
herbicidal effect, Sinapis [1]: 60%

O=C1NC2(CCC3(CC2)OCCCO3)C(O)=C1c1cc(-c2ccc(Cl)cc2)ccc1Cl [Ex. I-1-a-15]
nematicidal activity in % (formation of galls) (Meloidogyne incognita [6]): 100%
damage, Sugar beet (Test plants; crop plant, sub-table 3): 0%
damage, Alopecurus (Test plants; sub-table 3): 95%
damage, Avena fatua (Test plants; sub-table 3): 80%
damage, Echinochloa (Test plants; sub-table 3): 99%
damage, Setaria (Test plants; sub-table 3): 70%
